Assay results: patent US20160228575A1, “NARINGENIN COMPLEXES AND METHODS OF USE THEREOF” (THE GENERAL HOSPITAL CORPORATION, priority 2008, published 2016)

What was measured:
[1] = system: HCV (JFH-1) infection of naïve Huh7.5.1 cells; assay: HCV infectivity of cell culture supernatant on naïve Huh7.5.1 cells; format: cell-based, Hepatitis C virus; settings: Hepatitis C virus, Huh-7.5.1; supernatant after 24 hours stimulation; naringenin 200 μM, brefeldin A 2.5 μg/ml
Method: The infectivity of the secreted HCV particles was measured as previously described (8). Naïve Huh7.5.1 cells were grown to 80% confluence and exposed to cell culture supernatants diluted 10-fold in culture media. Following 1 hour incubation at 37° C., the media was replaced, and the cells were cultured for 3 additional days. Levels of HCV infection were determined by immunofluorescence staining for HCV core protein. The viral titer is expressed as focus forming units per milliliter of supernatant (ffu/ml).

[2] = system: primary human hepatocytes
[3] = system: HCV (JFH-1) secreted by infected Huh-7.5.1 cells; assay: HCV secretion by JFH-1 infected Huh-7.5.1 cells (HCV core antigen ELISA, HCV positive strand RNA qPCR); format: cell-based, Hepatitis C virus
Method: The Huh-7.5.1 human hepatoma cell line and a plasmid containing the JFH-1 genome were kindly provided by Dr. Chisari (Scripps Research Institute, CA) and Dr. Wakita (National Institute of Infectious Diseases, Tokyo) respectively. Huh-7.5.1 cells were cultured in DMEM medium supplemented with 10% FBS, 200 units/ml penicillin and […] streptomycin in a 5% CO2-humidified incubator at 37° C. In vitro transcribed genomic JFH-1 RNA was delivered to cells by liposome-mediated transfection as described by Zhong et al. (2005)(8). Infected Huh-7.5.1 cells were passaged every 3 days and used at passage <15. The presence of HCV in these cells and corresponding supernatants were determined by quantitative Polymerase Chain Reaction (qPCR) and immunofluorescence staining. Primary human hepatocytes were purchased from BD Biosciences (San Jose, Calif.) cultured on a collagen-coated 12 well plate in C+H culture media composed of DMEM supplemented with 10% heat-inactivated FBS, 200 U/mL penicillin/streptomycin, 7.5 μg/mL hydrocortisone, 20 ng/mL EGF, 14 ng/mL glucagons and 0.5 U/mL insulin. The media was supplemented with 2% DMSO for long-term culture of the primary cells.
(§1) HCV-infected Huh-7.5.1 cells were plated on a 6-well plate at a density of 1×10^5 cells/cm^2 and cultured overnight in standard medium. Prior to the beginning of the experiment, the cells were washed 3 times with PBS and cultured with DMEM containing 5% lipoprotein-free FBS. Oleate, Insulin, Naringenin, and Brefeldin A were added at this time as described in the text. Following 24 hours of incubation, the plate was gently agitated to release mechanically bound particles, the media was collected, filtered to remove cellular debris, and stored at −80° C. for further analysis. The attached cells were washed 3 times with PBS, harvested, pelleted and stored at −80° C. for further analysis.
Huh-7.5.1 secreted HCV core antigen was detected in the media using Wako Chemicals (Cambridge, Mass.) ORTHO HCV antigen ELISA kit. Media was used as is, and the assay was carried out according to manufacturer's directions.
Virus samples collected in each experiment were filtered with a 0.45 μm filter and a volume of 100 μL for each sample was heated at 95° C. for 45 min. The reverse transcription reaction step was performed on a Mastercycler epgrdientS (Eppendorf) instrument using Omniscript and Sensiscript RT Kits (Qiagen). Real time PCR was performed on a Light Cycler LC-24 (Idaho Technology), using SuperScript™ III Platinum® CellsDirect Two-Step qRT-PCR Kits (Invitrogen) for quantitative PCR. For reverse transcription step, 2 μL of sample without RNA extraction were used. For real time PCR, 1 μL of the reverse transcription reactions was used. All reactions were performed according to the manufacturer's instructions using the primers detailed in Table 1.
However, this experiment was carried out on cells continuously producing the virus. Long-term treatment could potentially have a greater effect. […] This treatment is compared to the current standard-of-care, 1000 i.u. of Interferon α (IFNα). Both treatments lowered HCV RNA to a similar level, 96±5% and 93±5% respectively.

[4] = system: ApoB; assay: ApoB secretion by JFH-1 infected Huh-7.5.1 cells (human ApoB ELISA); format: cell-based; settings: 24 hours, brefeldin A 2.5 μg/ml
Method: as §1
Huh-7.5.1 and primary human hepatocytes secreted ApoB was detected in the media using ALerCHEK, Inc (Portland, Me.) total human ApoB ELISA kit. Media was diluted 1:10 with the specimen diluent, and the assay was carried out according to manufacturer's directions.
HCV-infected Huh-7.5.1 cells were plated T-25 tissue culture flasks at a density of 1×10^5 cells/cm^2 and cultured overnight in standard medium. Prior to silencing, the cells were washed 3 times with PBS and media was replaced with OptiMEM basal medium. SureSilencing shRNA (GFP) plasmids against human ApoB100 as well as shRNA plasmid control (500 ng/ml) were combined with lipofectamine 2000 in OptiMEM and incubated with the cells overnight. SureSilencing shRNA plasmids code for GFP which was used to sort the transfected Huh7.5.1 cells, using FACSAria (BD Biosciences) located at the Partners AIDS Research Center. Transfected cells (10% of the total population) were sorted directly into a 12-well plate and allowed to adhere overnight. Culture media was conditioned by the transfected cells for 24 hours and analyzed as described above.

[5] = 24 hours, brefeldin A 2.5 μg/ml

Question: With O=C1C[C@@H](c2ccc(O)cc2)Oc2cc(O)cc(O)c21 [naringenin] as the molecule, how does the inhibition at 200 µM [1] read?
Answer: 79%

Question: And the “concentration up to which naringenin is non-toxic to freshly isolated human hepatocytes” value ([2]; 24 hours exposure)?
Answer: greater than 1000 μM

Question: What about the “naringenin concentration above which human hepatocyte viability dropped significantly” value ([2]; 24 hours exposure) of the same molecule?
Answer: greater than 1000 μl

Question: And the human hepatocyte viability ([2]; human, 24 h, 200 μM)?
Answer: 81%±3%

Question: And the “effective dose of naringenin in cell culture” value [3]?
Answer: 0.20 mM

Question: And the “HCV core protein secretion (in words)” value [3, 5]?
Answer: inhibits

Question: What about the “HCV positive strand RNA secretion (in words)” value [3, 5] of the same molecule?
Answer: inhibits

Question: What about the inhibition at 200 µM ([3]; Hepatitis C virus, 200 μM naringenin, short-term (24 hrs), infected Huh-7.5.1 cells) of the same molecule?
Answer: 80%

Question: What about the “inhibition of HCV (RNA) secretion, long-term treatment” value ([3]; long-term daily treatment of infected Huh7.5.1 cells, naringenin 200 μM, IFNα 1000 i.u.) of the same molecule?
Answer: 96±5%

Question: What about the “ApoB secretion (in words)” value [4] of the same molecule?
Answer: Inhibition
